In ChEMBL document CHEMBL1201862, “PubChem BioAssay data set” (2004):
Activity calls are given as the source filed them.

Assays:
[1] = target: T1, Alkaline phosphatase, tissue-nonspecific isozyme (Homo sapiens, UniProt P05186); assay: TNAP enzyme inhibition by screening hits, dose response, selectivity assay for mouse IAP inhibitor project, biochemical, human TNAP, uHTS hits (AID 488906); type: functional
T1 sequence (P05186 whole entry): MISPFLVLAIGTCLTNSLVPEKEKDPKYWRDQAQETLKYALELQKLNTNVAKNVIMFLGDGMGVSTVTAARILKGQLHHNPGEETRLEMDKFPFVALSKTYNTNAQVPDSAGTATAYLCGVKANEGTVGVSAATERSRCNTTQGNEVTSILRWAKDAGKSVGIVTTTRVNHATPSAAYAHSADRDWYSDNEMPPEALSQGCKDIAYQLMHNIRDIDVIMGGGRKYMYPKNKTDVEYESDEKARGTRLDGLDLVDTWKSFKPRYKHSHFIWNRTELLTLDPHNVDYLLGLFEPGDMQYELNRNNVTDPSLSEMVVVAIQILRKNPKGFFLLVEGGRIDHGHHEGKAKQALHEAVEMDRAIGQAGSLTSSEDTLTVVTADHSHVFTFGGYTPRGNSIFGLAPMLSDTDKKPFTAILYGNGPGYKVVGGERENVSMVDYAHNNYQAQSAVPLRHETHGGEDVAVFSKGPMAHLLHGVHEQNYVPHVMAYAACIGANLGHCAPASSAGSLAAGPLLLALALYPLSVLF

[2] = target: Intestinal-type alkaline phosphatase (Mus musculus, UniProt P24822); assay: PubChem AID 488785; type: functional
[3] = target: Intestinal-type alkaline phosphatase (Homo sapiens, UniProt P09923); assay: inhibition of human intestinal alkaline phosphatase – biochemical, dose response (AID 488876); type: functional
[4] = target: T2, Peroxisome proliferator-activated receptor gamma/Nuclear receptor coactivator 3 (Homo sapiens, UniProt P37231); type: functional
[5] = target: T3, Peroxisome proliferator-activated receptor gamma/Nuclear receptor coactivator 2 (Homo sapiens, UniProt P37231); type: functional
[6] = target: DNA dC->dU-editing enzyme APOBEC-3G (Homo sapiens, UniProt Q9HC16); assay: Dose Response confirmation of small molecule APOBEC3G DNA Deaminase Inhibitors via a fluorescence-based single-stranded DNA deaminase assay. [Related pubchem assays (depositor defined):AID493012, AID493028]; type: functional
[7] = target: T4, Peroxisome proliferator-activated receptor gamma/Nuclear receptor coactivator 1 (Homo sapiens, UniProt P37231); type: functional
[8] = target: T5, Voltage-gated N-type calcium channel alpha-1B subunit/Amyloid beta A4 precursor protein-binding family A member 1 (Homo sapiens, UniProt Q00975+Q02410); type: protein assay
[9] = target: T5, Voltage-gated N-type calcium channel alpha-1B subunit/Amyloid beta A4 precursor protein-binding family A member 1; type: protein assay; remark: listed apart in the source
[10] = non-specific cell cytotoxicity, dose response, cytotoxicity control for PAX8 inhibitor project, plate reader, dry powder samples (AID 743021); type: functional, cell-based
[11] = target: T2, Peroxisome proliferator-activated receptor gamma/Nuclear receptor coactivator 3; assay: (§1) TR-FRET dose response biochemical High Throughput Screening assay for agonists of the steroid receptor coactivator 3 (SRC-3) recruitment by the peroxisome proliferator-activated receptor gamma (PPAR gamma): non-selective agonists. [Related pubchem assays: 1301 (Confirmation screen.), 1048 (Primary screen.)]; type: functional
[12] = target: T4, Peroxisome proliferator-activated receptor gamma/Nuclear receptor coactivator 1; assay: as §1, with “1 (SRC-1)” for “3 (SRC-3)”, “assays (depositor defined):AID1300, AID1808, AID504735, AID631]” for “assays: 1301 (Confirmation screen.), 1048 (Primary screen.)]”; type: protein assay
[13] = Shn3 3'UTR reporter inhibitors, dose response, cell-based, Clone20 osteoblasts, firefly luciferase, cherry-picked (AID 624132); type: functional;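 further: firefly luciferase luminescence from reporter carrying the Shn3 3'UTR in osteoblasts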
[14] = target: T3, Peroxisome proliferator-activated receptor gamma/Nuclear receptor coactivator 2; assay: TR-FRET dose response biochemical High Throughput Screening assay for agonists of the steroid receptor coactivator 2 (SRC-2) recruitment by the peroxisome proliferator-activated receptor gamma (PPAR gamma): non-selective agonists. [Related pubchem assays: 1297, 1032 ]; type: functional
HeLa = assay: Cytotoxicity counterscreen assay for transcriptional activators of heat shock protein 70 (Hsp70). [Related pubchem assays: 1203, 1252 ]; type: functional; details: Homo sapiens;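 further: cells exposed to compound for 16 hours before readout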
[15] = HepG2 cell cytotoxicity, dose response, cytotoxicity control for Shn3 inhibitor project, CellTiter-Glo, cherry-picked (AID 624134); type: functional, cell-based
[16] = control 3'UTR Renilla luciferase suppression, dose response, counter-screen for Shn3 inhibitor project, cell-based, Clone20-Shn3RL, cherry-picked (AID 624133); type: functional
Paired box protein Pax-8 = Paired box protein Pax-8 (Homo sapiens, UniProt Q06710); assay: inhibitors of PAX8-driven TPO luciferase reporter, dose response, RMG-I cells, cherry-pick (AID 687027); type: functional, cell-based;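 further: luciferase reporter driven by Pax8 target thyroperoxidase promoter measured by SteadyGlo luminescence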
[17] = target: Glyceraldehyde-3-phosphate dehydrogenase (Homo sapiens, UniProt P04406)
[18] = target: T1, Alkaline phosphatase, tissue-nonspecific isozyme; assay: human TNAP enzyme inhibitors, SAR follow-up, biochemical, luminescent, dose response (AID 1056)
[19] = target: Alkaline phosphatase, placental type (Homo sapiens, UniProt P05187); assay: PLAP enzyme inhibitors, confirmation, biochemical, luminescence (AID 1512); type: functional
[20] = test system: Streptococcus sp. 'group A'; assay: growth inhibition of control SK(-) GAS strain, dose response, counter-screen for streptokinase expression inhibitor project, luminescence, kanamycin, BacTiterGlo, confirmation (AID 1900); type: functional, organism-based
Streptokinase A = target: T6, Streptokinase A (Streptococcus pyogenes serotype M1, UniProt P10520); assay: S. pyogenes streptokinase expression inhibitors, potency, dose response, plasminogen activation absorbance, OD405 (AID 1914); type: functional, Streptococcus pyogenes M1 GAS;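 further: secreted streptokinase activity via plasminogen activation per viability signal from cell pellet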
T6 sequence (P10520 whole entry): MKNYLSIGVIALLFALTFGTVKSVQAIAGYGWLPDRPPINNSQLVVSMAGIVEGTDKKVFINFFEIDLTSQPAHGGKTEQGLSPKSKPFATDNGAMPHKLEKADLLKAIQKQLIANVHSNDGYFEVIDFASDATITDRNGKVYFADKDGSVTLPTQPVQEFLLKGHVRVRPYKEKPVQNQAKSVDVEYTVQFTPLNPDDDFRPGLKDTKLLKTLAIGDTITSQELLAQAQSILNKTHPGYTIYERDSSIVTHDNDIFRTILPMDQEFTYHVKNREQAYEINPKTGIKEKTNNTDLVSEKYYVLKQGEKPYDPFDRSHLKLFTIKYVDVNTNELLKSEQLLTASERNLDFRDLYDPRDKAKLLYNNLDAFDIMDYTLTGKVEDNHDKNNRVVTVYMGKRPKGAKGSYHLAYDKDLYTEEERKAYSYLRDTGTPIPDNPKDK

Streptococcus = assay: Group A Streptococcus viability loss, dose response, counter-screen for streptokinase expression inhibitor project, luminescence, BacTiterGlo (AID 1915); type: functional, organism-based;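 further: potency for reduction of bacterial viability or growth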

Chain of Intestinal-type alkaline phosphatase (Mus musculus, UniProt P24822) (P24822 whole entry): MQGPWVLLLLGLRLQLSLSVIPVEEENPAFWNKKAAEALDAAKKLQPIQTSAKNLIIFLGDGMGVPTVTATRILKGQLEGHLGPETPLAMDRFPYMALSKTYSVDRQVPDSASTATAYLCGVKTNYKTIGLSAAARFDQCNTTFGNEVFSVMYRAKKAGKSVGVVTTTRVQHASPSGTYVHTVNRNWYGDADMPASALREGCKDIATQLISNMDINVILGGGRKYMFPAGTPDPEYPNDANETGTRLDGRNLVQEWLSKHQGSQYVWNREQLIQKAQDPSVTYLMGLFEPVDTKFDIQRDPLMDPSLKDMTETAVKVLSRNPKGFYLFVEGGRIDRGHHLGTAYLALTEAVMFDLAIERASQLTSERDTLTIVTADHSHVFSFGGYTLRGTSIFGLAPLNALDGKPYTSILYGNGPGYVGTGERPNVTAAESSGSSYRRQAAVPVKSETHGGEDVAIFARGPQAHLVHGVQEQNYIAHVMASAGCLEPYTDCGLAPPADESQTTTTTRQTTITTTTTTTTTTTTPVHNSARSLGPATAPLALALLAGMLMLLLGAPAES
T5 sequence (Q00975 whole entry): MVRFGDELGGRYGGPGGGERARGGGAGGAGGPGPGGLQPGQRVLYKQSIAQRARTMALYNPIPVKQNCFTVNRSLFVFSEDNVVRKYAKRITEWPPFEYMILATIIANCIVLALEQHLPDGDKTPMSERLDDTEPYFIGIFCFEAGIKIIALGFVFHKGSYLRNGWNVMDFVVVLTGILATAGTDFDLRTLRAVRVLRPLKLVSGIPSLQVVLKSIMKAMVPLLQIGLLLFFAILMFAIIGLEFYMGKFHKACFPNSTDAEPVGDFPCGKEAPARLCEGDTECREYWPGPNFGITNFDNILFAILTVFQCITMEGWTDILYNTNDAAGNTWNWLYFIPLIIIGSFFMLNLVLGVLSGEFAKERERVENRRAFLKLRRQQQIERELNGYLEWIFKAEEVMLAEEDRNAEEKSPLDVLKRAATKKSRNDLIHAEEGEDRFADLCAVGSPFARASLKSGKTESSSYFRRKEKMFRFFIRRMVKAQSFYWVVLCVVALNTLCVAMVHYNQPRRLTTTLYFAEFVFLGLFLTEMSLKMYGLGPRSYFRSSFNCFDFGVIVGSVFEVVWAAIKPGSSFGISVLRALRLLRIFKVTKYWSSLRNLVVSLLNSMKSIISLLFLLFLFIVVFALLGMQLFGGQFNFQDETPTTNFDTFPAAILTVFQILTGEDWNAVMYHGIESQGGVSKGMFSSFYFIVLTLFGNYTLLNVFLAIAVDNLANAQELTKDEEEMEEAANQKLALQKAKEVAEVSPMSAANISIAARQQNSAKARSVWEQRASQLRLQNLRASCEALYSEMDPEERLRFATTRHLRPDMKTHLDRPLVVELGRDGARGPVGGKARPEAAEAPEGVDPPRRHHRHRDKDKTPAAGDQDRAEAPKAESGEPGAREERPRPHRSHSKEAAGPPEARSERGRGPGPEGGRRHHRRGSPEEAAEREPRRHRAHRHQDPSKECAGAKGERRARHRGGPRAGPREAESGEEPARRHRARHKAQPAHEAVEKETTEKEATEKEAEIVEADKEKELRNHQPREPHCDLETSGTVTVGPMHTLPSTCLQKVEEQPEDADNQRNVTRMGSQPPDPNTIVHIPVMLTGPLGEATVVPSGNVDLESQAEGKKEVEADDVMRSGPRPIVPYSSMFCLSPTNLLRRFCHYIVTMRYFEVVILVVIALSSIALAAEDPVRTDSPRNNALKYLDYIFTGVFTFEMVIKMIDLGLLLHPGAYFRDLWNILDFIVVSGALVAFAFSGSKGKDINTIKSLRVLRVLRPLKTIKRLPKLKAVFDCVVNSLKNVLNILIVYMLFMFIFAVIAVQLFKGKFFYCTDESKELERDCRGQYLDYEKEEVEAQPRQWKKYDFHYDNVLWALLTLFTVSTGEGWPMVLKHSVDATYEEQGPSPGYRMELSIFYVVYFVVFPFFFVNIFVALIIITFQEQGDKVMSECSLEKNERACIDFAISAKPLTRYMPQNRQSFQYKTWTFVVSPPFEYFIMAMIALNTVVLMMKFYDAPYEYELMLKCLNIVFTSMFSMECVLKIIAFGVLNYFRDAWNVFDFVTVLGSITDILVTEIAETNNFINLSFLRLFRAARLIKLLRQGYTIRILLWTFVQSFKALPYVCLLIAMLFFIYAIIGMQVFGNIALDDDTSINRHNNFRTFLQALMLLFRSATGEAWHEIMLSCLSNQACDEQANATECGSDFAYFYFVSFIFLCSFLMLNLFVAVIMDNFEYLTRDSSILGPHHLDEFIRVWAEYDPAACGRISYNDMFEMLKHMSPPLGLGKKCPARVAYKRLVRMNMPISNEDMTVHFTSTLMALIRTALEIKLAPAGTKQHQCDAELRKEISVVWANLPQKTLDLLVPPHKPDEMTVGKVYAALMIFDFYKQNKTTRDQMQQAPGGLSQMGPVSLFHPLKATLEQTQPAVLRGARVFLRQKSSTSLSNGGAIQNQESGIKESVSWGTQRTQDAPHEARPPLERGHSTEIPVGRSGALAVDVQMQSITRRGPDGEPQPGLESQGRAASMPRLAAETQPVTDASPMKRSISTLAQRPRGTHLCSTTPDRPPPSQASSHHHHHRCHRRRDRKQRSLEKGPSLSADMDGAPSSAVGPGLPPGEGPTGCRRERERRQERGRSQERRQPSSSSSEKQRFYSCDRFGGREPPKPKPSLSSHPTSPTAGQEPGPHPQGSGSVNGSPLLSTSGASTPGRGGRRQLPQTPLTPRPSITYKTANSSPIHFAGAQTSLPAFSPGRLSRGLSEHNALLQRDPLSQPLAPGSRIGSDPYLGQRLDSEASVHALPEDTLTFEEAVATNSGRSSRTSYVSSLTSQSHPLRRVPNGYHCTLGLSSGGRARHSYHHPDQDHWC
T5 sequence (Q02410 whole entry): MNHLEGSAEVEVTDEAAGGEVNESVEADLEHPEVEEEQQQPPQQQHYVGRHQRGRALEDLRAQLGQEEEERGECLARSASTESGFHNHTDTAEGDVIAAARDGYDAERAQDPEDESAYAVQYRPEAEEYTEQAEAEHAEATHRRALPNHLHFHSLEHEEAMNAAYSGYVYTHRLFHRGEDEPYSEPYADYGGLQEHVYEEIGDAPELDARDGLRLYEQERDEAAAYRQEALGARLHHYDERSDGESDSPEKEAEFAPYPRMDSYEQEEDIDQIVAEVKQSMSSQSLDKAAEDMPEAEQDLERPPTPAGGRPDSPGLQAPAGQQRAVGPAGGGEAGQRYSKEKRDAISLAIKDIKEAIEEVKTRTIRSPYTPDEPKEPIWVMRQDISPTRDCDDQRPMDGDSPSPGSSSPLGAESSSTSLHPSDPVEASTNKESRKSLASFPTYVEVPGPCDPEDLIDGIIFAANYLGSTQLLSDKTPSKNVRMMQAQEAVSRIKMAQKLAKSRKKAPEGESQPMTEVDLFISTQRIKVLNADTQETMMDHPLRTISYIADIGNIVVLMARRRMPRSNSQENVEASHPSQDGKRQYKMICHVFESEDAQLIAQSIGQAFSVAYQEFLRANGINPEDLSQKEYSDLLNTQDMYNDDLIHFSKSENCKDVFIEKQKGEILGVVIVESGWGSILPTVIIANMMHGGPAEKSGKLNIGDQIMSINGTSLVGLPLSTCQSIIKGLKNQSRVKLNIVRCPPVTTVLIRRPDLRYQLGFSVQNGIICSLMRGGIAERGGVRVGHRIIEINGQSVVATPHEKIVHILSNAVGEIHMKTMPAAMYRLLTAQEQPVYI
Chain of Intestinal-type alkaline phosphatase (Homo sapiens, UniProt P09923) (P09923 whole entry): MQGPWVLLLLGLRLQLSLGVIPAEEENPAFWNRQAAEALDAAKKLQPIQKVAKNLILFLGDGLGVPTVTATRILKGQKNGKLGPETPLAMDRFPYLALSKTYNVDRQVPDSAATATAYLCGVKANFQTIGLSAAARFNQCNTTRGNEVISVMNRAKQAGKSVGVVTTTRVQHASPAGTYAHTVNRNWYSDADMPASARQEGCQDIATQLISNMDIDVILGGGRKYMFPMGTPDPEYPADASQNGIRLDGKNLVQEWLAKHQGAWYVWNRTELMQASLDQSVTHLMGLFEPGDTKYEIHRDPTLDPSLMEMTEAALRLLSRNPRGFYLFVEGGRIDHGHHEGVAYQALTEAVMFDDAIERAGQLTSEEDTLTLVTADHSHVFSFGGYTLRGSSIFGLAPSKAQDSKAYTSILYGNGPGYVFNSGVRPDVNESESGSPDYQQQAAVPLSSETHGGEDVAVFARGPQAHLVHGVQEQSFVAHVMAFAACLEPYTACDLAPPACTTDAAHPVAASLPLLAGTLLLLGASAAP
Chain of Paired box protein Pax-8 (Q06710 whole entry): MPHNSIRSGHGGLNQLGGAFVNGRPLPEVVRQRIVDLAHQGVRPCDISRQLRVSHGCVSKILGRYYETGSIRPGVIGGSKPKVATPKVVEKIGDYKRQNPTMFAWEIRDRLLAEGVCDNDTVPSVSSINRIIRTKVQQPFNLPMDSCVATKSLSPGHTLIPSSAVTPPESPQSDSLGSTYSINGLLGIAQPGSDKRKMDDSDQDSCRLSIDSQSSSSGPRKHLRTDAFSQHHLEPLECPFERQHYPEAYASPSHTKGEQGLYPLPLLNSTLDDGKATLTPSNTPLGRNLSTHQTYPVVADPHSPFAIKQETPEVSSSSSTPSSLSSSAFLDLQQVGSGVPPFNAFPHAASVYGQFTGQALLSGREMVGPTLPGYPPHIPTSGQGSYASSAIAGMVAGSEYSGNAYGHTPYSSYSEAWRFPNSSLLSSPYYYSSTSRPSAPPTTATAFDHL
Chain of DNA dC->dU-editing enzyme APOBEC-3G (Q9HC16 whole entry): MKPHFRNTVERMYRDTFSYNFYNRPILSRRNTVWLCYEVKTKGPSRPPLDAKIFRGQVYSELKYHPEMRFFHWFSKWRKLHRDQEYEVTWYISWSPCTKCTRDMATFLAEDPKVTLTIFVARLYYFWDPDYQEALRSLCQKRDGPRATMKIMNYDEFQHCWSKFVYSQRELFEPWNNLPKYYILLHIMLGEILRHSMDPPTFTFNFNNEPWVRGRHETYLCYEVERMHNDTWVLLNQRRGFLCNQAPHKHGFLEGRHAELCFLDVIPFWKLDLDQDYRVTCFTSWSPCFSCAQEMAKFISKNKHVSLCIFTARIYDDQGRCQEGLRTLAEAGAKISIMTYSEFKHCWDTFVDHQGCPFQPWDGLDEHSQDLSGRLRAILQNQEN

For O=S(=O)(c1ccc2nc(O)oc2c1)N1CCCCC1, the IC50 [1] was 36.5 µM (active), the IC50 [2] was 1.67 µM (active) and the IC50 [3] was > 100 µM (inactive).

In the case of CCc1ccc(N2CSC3=C(C#N)C(c4cccs4)CC(=O)N3C2)cc1 (configuration not stated), the EC50 [4] is reported as 77.8 µM (not active), the EC50 [5] is reported as 50.7 µM (not active) and the IC50 [6] is reported as 8.18 µM (active). For the same molecule, the EC50 [7] was 63.3 µM (not active), the IC50 [8] was 13.1 µM (active) and the IC50 [9] was > 50 µM (inactive).

In the case of O=c1c(Br)c(Br)cnn1-c1ccccc1, the AC50 [10] is reported as 14.8 µM (active), the EC50 [11] is reported as > 79.4 µM (not active) and the EC50 [12] is reported as > 79.4 µM (inactive). The AC50 [13] was 1.82 µM (active), the EC50 [14] was > 79.4 µM (not active) and the CC50 (HeLa) was > 11 µM (not active). The AC50 [15] was 25.4 µM (active), the AC50 [16] was 2.75 µM (active) and the AC50 (Paired box protein Pax-8) was 8.26 µM (active).

In the case of CC1(C)CC(=O)c2c(/C=C/c3ccccc3)n[nH]c2C1, the IC50 [17] is reported as > 100 µM (not active), the IC50 [18] is reported as > 100 µM (inactive) and the IC50 [19] is reported as > 100 µM (inactive).

With Cc1ccc(CN=C(S)NC2CCC(C(C)(C)C)CC2)cc1 (configuration not stated) the IC50 [1] was 48 µM (active), the EC50 [20] was 5.46 µM (active) and the IC50 [2] was 2.35 µM (active). For the same molecule, the IC50 [3] was > 100 µM (inactive), the EC50 (Streptokinase A) was 13.1 µM (active) and the EC50 (Streptococcus) was > 150 µM (not active).
